ChEMBL document CHEMBL3621069 (Bioorg Med Chem Lett, 2015)

Experiments:
[1] = biological target: T1, Tyrosine-protein kinase ZAP-70 (Homo sapiens, UniProt P43403); test: Inhibition of purified full-length human ZAP70 pre-incubated for 30 mins at room temperature before UlighTM-PolyGT peptide substrate addition and measured 1 hr after substrate addition by cell free kinase assay
T1 sequence (P43403 whole entry): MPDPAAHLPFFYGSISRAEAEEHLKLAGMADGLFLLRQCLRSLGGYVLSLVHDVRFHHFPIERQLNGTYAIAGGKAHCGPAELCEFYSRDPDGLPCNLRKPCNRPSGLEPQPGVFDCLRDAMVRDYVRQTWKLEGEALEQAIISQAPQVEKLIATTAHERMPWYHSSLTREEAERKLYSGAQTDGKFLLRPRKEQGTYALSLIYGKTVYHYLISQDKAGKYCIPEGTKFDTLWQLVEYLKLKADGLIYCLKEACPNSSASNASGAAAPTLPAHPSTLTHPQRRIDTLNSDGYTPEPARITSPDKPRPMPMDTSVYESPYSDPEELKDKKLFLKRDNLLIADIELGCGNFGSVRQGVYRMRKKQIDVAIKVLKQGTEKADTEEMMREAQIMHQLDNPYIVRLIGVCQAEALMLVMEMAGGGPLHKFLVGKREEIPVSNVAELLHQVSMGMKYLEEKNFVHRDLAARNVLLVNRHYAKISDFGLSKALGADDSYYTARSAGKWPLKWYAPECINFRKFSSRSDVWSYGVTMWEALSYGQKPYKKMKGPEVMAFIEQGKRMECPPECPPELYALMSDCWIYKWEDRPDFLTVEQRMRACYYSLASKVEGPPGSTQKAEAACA

[2] = biological target: T2, Tyrosine-protein kinase JAK3 (Homo sapiens, UniProt P52333); test: Inhibition of JAK3 (unknown origin) pre-incubated for 30 mins at room temperature before substrate addition and measured 1 hr after substrate addition by cell free kinase assay
T2 sequence (P52333 whole entry): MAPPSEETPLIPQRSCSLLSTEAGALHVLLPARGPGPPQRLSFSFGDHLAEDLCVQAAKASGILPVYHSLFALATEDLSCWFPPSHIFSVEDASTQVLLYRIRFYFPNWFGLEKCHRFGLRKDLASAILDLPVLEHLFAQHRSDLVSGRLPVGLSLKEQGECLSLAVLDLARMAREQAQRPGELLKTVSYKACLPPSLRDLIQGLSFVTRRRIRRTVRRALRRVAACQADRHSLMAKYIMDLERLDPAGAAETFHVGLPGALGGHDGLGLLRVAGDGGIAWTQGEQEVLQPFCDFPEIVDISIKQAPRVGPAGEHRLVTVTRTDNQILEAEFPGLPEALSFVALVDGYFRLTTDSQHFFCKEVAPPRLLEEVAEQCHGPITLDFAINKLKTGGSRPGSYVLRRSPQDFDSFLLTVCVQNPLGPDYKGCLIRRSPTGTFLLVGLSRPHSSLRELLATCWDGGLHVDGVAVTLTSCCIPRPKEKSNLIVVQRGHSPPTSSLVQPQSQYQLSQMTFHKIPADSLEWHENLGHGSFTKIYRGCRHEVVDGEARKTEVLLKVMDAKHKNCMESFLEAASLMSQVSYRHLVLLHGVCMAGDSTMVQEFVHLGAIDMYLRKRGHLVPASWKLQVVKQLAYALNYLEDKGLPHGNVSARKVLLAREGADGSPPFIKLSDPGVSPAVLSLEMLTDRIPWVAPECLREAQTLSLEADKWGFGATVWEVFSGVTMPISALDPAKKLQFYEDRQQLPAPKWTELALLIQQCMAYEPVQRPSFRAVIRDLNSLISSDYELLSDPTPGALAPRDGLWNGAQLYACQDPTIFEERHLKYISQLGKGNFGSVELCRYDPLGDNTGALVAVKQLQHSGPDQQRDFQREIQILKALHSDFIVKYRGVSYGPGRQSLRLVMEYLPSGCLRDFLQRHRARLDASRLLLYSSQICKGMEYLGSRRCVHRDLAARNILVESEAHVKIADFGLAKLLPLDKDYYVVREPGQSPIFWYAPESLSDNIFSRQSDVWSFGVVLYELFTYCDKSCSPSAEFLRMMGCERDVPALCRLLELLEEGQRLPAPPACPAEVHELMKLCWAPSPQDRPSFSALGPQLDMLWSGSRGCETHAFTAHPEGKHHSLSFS

Aurora kinase B = Aurora kinase B (Homo sapiens, UniProt Q96GD4); test: Inhibition of Aurora B kinase (unknown origin) pre-incubated for 30 mins at room temperature before substrate addition and measured 1 hr after substrate addition by cell free kinase assay
Sequence of Aurora kinase B (Q96GD4 whole entry): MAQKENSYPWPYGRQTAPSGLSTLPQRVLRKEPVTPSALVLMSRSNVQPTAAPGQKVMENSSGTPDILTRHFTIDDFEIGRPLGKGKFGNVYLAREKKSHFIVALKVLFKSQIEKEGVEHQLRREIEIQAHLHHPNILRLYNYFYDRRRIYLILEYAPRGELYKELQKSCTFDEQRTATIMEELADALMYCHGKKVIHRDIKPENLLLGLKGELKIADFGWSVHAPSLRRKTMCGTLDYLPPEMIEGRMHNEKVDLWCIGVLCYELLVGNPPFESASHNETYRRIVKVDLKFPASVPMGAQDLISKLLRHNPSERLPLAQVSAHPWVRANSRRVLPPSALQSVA

[3] = Stability in human liver microsomes; format: ADME; details: read-out: Stability
[4] = Apparent permeability from apical to basolateral side in human Caco2 cells; format: ADME, cell-based; details: Caco-2
[5] = Inhibition of CYP450 (unknown origin); format: ADME, Homo sapiens
Salmonella typhimurium [6] = test: Genotoxicity in Salmonella typhimurium TA100 at 5000 µg/plate in presence of liver S9 fraction by Ames test; format: toxicity, organism-based; details: salmonella enterica subsp. enterica serovar typhimurium
Salmonella typhimurium [7] = test: Genotoxicity in Salmonella typhimurium TA100 at 5000 µg/plate in absence of liver S9 fraction by Ames test; format: toxicity, organism-based; details: salmonella enterica subsp. enterica serovar typhimurium
Salmonella typhimurium [8] = test: Genotoxicity in Salmonella typhimurium TA1535 at 5000 µg/plate in presence of liver S9 fraction by Ames test; format: toxicity, organism-based; details: salmonella enterica subsp. enterica serovar typhimurium
Salmonella typhimurium [9] = test: Genotoxicity in Salmonella typhimurium TA1535 at 5000 µg/plate in absence of liver S9 fraction by Ames test; format: toxicity, organism-based; details: salmonella enterica subsp. enterica serovar typhimurium
Salmonella typhimurium [10] = test: Genotoxicity in Salmonella typhimurium TA1537 at 5000 µg/plate in presence of liver S9 fraction by Ames test; format: toxicity, organism-based; details: salmonella enterica subsp. enterica serovar typhimurium
Escherichia coli [11] = test: Genotoxicity in Escherichia coli WP2 uvrA at 5000 µg/plate in absence of liver S9 fraction by Ames test; format: toxicity, organism-based
Salmonella typhimurium [12] = test: Mutagenicity in Salmonella typhimurium TA98 at 5000 µg/plate in presence of liver S9 fraction by Ames test; format: toxicity, organism-based; details: salmonella enterica subsp. enterica serovar typhimurium
Salmonella typhimurium [13] = test: Mutagenicity in Salmonella typhimurium TA100 at 5000 µg/plate in absence of liver S9 fraction by Ames test; format: toxicity, organism-based; details: salmonella enterica subsp. enterica serovar typhimurium
Salmonella typhimurium [14] = test: Mutagenicity in Salmonella typhimurium TA1535 at 5000 µg/plate in absence of liver S9 fraction by Ames test; format: toxicity, organism-based; details: salmonella enterica subsp. enterica serovar typhimurium
Salmonella typhimurium [15] = test: Mutagenicity in Salmonella typhimurium TA1537 at 5000 µg/plate in presence of liver S9 fraction by Ames test; format: toxicity, organism-based; details: salmonella enterica subsp. enterica serovar typhimurium
Escherichia coli [16] = test: Mutagenicity in Escherichia coli WP2 uvrA at 5000 µg/plate in presence of liver S9 fraction by Ames test; format: toxicity, organism-based
Salmonella typhimurium [17] = test: Mutagenicity in Salmonella typhimurium TA1537 at 5000 µg/plate in absence of liver S9 fraction by Ames test; format: toxicity, organism-based; details: salmonella enterica subsp. enterica serovar typhimurium
[18] = Clearance in Sprague-Dawley rat at 10 mg/kg, po; format: ADME, organism-based; details: in vivo
Rattus norvegicus = test: Volume of distribution at steady state in Sprague-Dawley rat at 10 mg/kg, po; format: ADME, organism-based; details: in vivo
[19] = Terminal half life in Sprague-Dawley rat at 10 mg/kg, po; format: ADME, organism-based; details: in vivo, read-out: beta t1/2 (converted)
[20] = Oral bioavailability in Sprague-Dawley rat at 10 mg/kg; format: ADME, organism-based; details: in vivo
[21] = AUClast in Sprague-Dawley rat at 10 mg/kg; format: ADME, organism-based; set-up: dose 10 mg/kg, time 0 - last; details: in vivo

Compound | IC50 [1] [nM] | IC50 [2] [nM] | IC50 (Aurora kinase B) [nM] | half-life [3] [h] | Papp A→B [4] [×10⁻⁶ cm/s] | IC50 [5] [nM] | Activity (Salmonella typhimurium [6]) | Activity (Salmonella typhimurium [7]) | Activity (Salmonella typhimurium [8]) | Activity (Salmonella typhimurium [9]) | Activity (Salmonella typhimurium [10]) | Activity (Escherichia coli [11]) | Activity (Salmonella typhimurium [12]) | Activity (Salmonella typhimurium [13]) | Activity (Salmonella typhimurium [14]) | Activity (Salmonella typhimurium [15]) | Activity (Escherichia coli [16]) | Activity (Salmonella typhimurium [17]) | CL/F [18] [mL/min/kg] | Vdss (Rattus norvegicus) [L/kg] | other results
Cc1nn(-c2ccnc(Nc3ccc4c(c3)c(C)c(C)n4C)n2)cc1CN1CC(O)C1 | 996000 | 418 | 985 | > 1 | 6.2 | > 10000 | Non-toxic | Non-toxic | Non-toxic | Non-toxic | Non-toxic | Non-toxic | Non-toxic | Non-toxic | Non-toxic | Non-toxic | Non-toxic | Non-toxic | 21 | 3.7 | half-life [19]: 3.4 h; bioavailability [20]: 61%; AUC(0-t) [21]: 4000 ng·h/mL
Cc1nn(-c2ccnc(Nc3ccc4c(c3)c(Cl)c(C)n4C)n2)cc1CN1CC(O)C1 | 53800 | 78.1 | 1710 | > 1 | 2.7 | > 10000 | Non-toxic | Non-toxic | Non-toxic | Non-toxic | Non-toxic | Non-toxic | Non-toxic | Non-toxic | Non-toxic | Non-toxic | Non-toxic | Non-toxic | 26 | 3.3 | half-life [19]: 3.6 h; bioavailability [20]: 28.4%; AUC(0-t) [21]: 3230 ng·h/mL
